Converted amounts (≈) assume the structure as drawn. *1 amine or outer side, *2 acyl side, *3 side chain or, on linkers, in order; H or OH if unused. Where a SMILES comes first, the peptide text is derived from it. [ ]: non-standard residue; d: D form. X1 = CCCCCC(O)CC(N[*:1])C(O)C(=O)[*:2]; X2 = CC1C[C@@H](C(=O)[*:2])N([*:1])C1; d(aIle) = CC[C@H](C)[C@@H](N)C(=O)O; Dhb = C/C=C(\N)C(=O)O

In one series the test system is Bacillus subtilis. In words: Broth two-fold microdilution. It counts as cell-based. To be noted: B. subtilis CCM1999; Mueller Hinton broth, 300–0.0732 µg/mL (control 32–0.0625), 37 °C 16 h, triplicate; MIC = least concentration showing any inhibition in the growth. As to the method:
Furthermore, compound 1 was evaluated for its antimicrobial activity against five bacterial isolates; S. aureus (CCM3824), B. subtilis (CCM1999), S. sanguinis (CCM4047), P. aeruginosa (CCM1959), E. coli (CCM2024), and eight fungal isolates; C. friedrichii (BCC020_2879), A. fumigatus (BCC020_2845), F. oxysporum (BCC020_2866), T. harzianum (BCC020_0606), B. sorokiniana (BCC020_1571), M. cucumerina (BCC020_2872), C. globosum (BCC020_2527), and A. alternata (BCC020_0609) using broth two-fold microdilution method following the standard protocol. Briefly, for broth microdilution method, the compounds were serially diluted at varying concentrations between 300 and 0.0732 µg/mL in Mueller Hinton broth (for bacteria) and Muller Hinton broth with 2% glucose (for fungi) in 96-well plates. Culture broth (0.1 mL) was added to each well containing the compound. […] MIC95 was determined as the concentration required to inhibit or kill 95% of bacterial isolates spectroscopically at 600 nm. Minimum fungicidal concentration (MFCs) were determined after 48 h incubation by removing 10 µL of the contents from wells showing no visible growth and spreading them on to Sabouraud dextrose agar plates. The plates were then incubated for 72 h and MFCs were determined as the concentrations which killed 95–100% of the inoculum. […]
(Dilution methods test growth across graded concentrations, often in twofold steps.)

For another series, the system named is Sclerotinia sclerotiorum. In words: Disc diffusion antifungal assay. It counts as cell-based. To be noted: S. sclerotiorum, 250–1.5625 µg/disk, Czapek-Dox medium, mycelium growth after 4 days by image analysis, triplicate. As to the method: Due to the unavailability of enough amounts of isolated compounds, the antifungal activity for all the isolated compounds (1–3) was initially tested only against plant pathogenic fungi Sclerotinia sclerotiorum by determining the minimum inhibitory concentration (MIC) using disc diffusion assay. Compounds (1–3) were dissolved in MeOH at different concentrations and further transferred (20 µL) on layer filter paper targets (size 5 mm) to get desired concentrations of 250–1.5625 µg/disk. Discs were placed at the border of Petri dish (average 35 mm) containing Czapek-Dox medium. The mycelial target of the plant pathogenic fungus S. sclerotiorum (0.5 cm in diameter) was inoculated on the opposite sites of dish. […] The growth of fungal mycelium after 4 days in the presence of the studied compounds was evaluated using digital image analysis. […] The images (TIFF format) were converted by thresholds, and the area of binary objects corresponding to size of grown mycelium was measured and evaluated by software NIS-ELEMENTS AR ver. […] The inhibition of the mycelium growth (inhibition zone in percentages) was calculated as the difference between the measurements (in px) of the total area of fungal mycelium (negative controls) and of the area that is covered with mycelium (treated dishes).
On the technique in general: In agar diffusion tests the substance spreads into inoculated agar from a disc or well.

A short description of series [1]: Partition coefficient (K) in two-phase HPCCC solvent systems. It counts as physicochemical. Conditions: 2 mg extract in 2 mL (1 mL per phase), HPLC-ESI-HRMS. From the text: When working with HPCCC, the search for a proper two-phase solvent system has been informed to represent the major part of the work involved in the HPCCC separation. An appropriate two-phase solvent system for HPCCC has to provide a good partition coefficient (0.5 ≤ K ≤ 2.5) for the target compound. […] Additionally, for achieving a good resolution between two closely eluting peaks, the separation factor (α) between the two compounds (α = K2/K1, K2 > K1) should be greater than 1.5 [14, 26]. It is well described that compounds with smaller K values show a poor resolution because they elute closer to the solvent front. On the contrary, those compounds with larger K value are better separated but elute as wider peaks and at later elution times. In the present study, the capacity of different two-phase solvent systems (Table 1) to provide suitable K values of the compounds 1–3 was investigated. The K value is frequently estimated by using HPLC with UV detection, which is calculated by dividing the peak area of the target compound in the upper phase by that of the peak area of the same target compound in the lower phase. However, given that UV chromatogram provided insufficient peak areas for minor muscotoxins, the MS detector was thus used to estimate the K values. By using this approach, the peak area of the molecular ions corresponding to the target compounds were selectively monitored from the base peak chromatogram. As presented in the Table 1, the solvent system 10 (n-hexane, ethyl acetate, ethanol, and water in a ratio of 1:5:1:5) gave suitable K values and a proper separation factor (α) for compounds 2 and 3, as well as a short settling time. […] The improvement of the K value of compound 1 could be achieved by finding out a new solvent system or by modifying the composition of the already selected solvent system. In the present study, the system 10 was acidified by adding acetic acid leading to the system 11 (n-hexane, ethyl acetate, ethanol, water, and acetic acid, 1:5:1:5:1). […] Although the partition coefficients of the target compounds in systems 10 and 11 are strongly correlated, the system 10 ensured a sufficient selectivity (α = 1.5) between the compounds 2 and 3. […] In HPCCC, it is very well established that when the retention of stationary phase is increased, a good chromatographic resolution is achieved. A reduced flow rate of the mobile phase and a high rotational speed of the column favor the retention of the stationary phase inside the HPCCC column. In this study, the flow rate of the mobile phase in the first step and second step of the HPCCC operations was 1 mL/min and the rotational speed was set at 1200 rpm. Moreover, it was observed that a good resolution between the compounds 2 and 3 was achieved when injecting 100 mg of enriched extract.
Different two-phase solvent systems were prepared using n-hexane, ethyl acetate, ethanol, water, and acetic acid in different proportions (Table 1). The prepared solvent systems were investigated for their capacity to provide suitable partition coefficients (K) of the target compounds. In addition, given that the settling time as well as the density difference between the upper and lower phases of each two-phase solvent system are parameters associated with the retention of stationary phase in the column, they were thus estimated and used as selection criteria. For estimating the partition coefficient (Table 1) of the target compound, 2 mg of extract containing the target compounds was dissolved in 2 mL of a given two-phase solvent system (1 mL per each phase). The test tube containing the sample solution was shaken vigorously, and then left, to equilibrate the two phases, for 20 min. Equal volumes of each phase were then analyzed by HPLC-ESI-HRMS to obtain the partition coefficients (K), which were calculated by dividing the peak area of the target compound in the upper phase by the peak area of compound in the lower phase.

Another series has as its system Alternaria alternata. In words: microbe, parasite or virus in culture. It counts as cell-based. Conditions: Alternaria alternata; A. alternata BCC020_0609; Muller Hinton broth with 2% glucose, 300–0.0732 µg/mL (control 32–0.0625), 30 °C 48 h, triplicate; least concentration showing any inhibition; read-out: MIC. The method, then:
(§1) Furthermore, compound 1 was evaluated for its antimicrobial activity against five bacterial isolates; S. aureus (CCM3824), B. subtilis (CCM1999), S. sanguinis (CCM4047), P. aeruginosa (CCM1959), E. coli (CCM2024), and eight fungal isolates; C. friedrichii (BCC020_2879), A. fumigatus (BCC020_2845), F. oxysporum (BCC020_2866), T. harzianum (BCC020_0606), B. sorokiniana (BCC020_1571), M. cucumerina (BCC020_2872), C. globosum (BCC020_2527), and A. alternata (BCC020_0609) using broth two-fold microdilution method following the standard protocol. Briefly, for broth microdilution method, the compounds were serially diluted at varying concentrations between 300 and 0.0732 µg/mL in Mueller Hinton broth (for bacteria) and Muller Hinton broth with 2% glucose (for fungi) in 96-well plates. Culture broth (0.1 mL) was added to each well containing the compound. Plates were incubated aerobically at 37 °C for 16 h (bacteria) and 30 °C for 48 h (for fungi). Negative controls were prepared separately with respective organisms in the same culture media with methanol (the dissolving solvent). Positive controls were also prepared separately with respective organisms. Erythromycin (32–0.0625 µg/mL) was used as positive control for S. aureus and S. sanguinis, gentamycin (32–0.0625 µg/mL) was used as positive control for Bacillus subtilis, E. coli, and P. aeruginosa, whereas fluconazole (32–0.0625 µg/mL) was used as positive control for all the fungal isolates. After incubation, the well with the least concentration of the compound showing any inhibition in the growth was taken as the MIC value for the respective organisms. MIC95 was determined as the concentration required to inhibit or kill 95% of bacterial isolates spectroscopically at 600 nm. Minimum fungicidal concentration (MFCs) were determined after 48 h incubation by removing 10 µL of the contents from wells showing no visible growth and spreading them on to Sabouraud dextrose agar plates. The plates were then incubated for 72 h and MFCs were determined as the concentrations which killed 95–100% of the inoculum. All the experiments were done in triplicate.

The next series has as its system Aspergillus fumigatus. In words: microbe, parasite or virus in culture. Conditions: Aspergillus fumigatus; A. fumigatus BCC020_2845; Muller Hinton broth with 2% glucose, 300–0.0732 µg/mL (control 32–0.0625), 30 °C 48 h, triplicate; least concentration showing any inhibition; read-out: MIC. It counts as cell-based. As to the method:
as §1

The test system of the next series is Fusarium oxysporum. Put plainly: microbe, parasite or virus in culture. Conditions: Fusarium oxysporum; F. oxysporum BCC020_2866; Muller Hinton broth with 2% glucose, 300–0.0732 µg/mL (control 32–0.0625), 30 °C 48 h, triplicate; least concentration showing any inhibition; read-out: MIC. It counts as cell-based. As to the method: as §1
The subject of the next series is Candida friedrichii. In words: microbe, parasite or virus in culture. It counts as cell-based. Conditions: Yamadazyma friedrichii; C. friedrichii BCC020_2879; Muller Hinton broth with 2% glucose, 300–0.0732 µg/mL (control 32–0.0625), 30 °C 48 h, triplicate; least concentration showing any inhibition; read-out: MIC. The method, then:
as §1

A further series has as its system Chaetomium globosum. Put plainly: microbe, parasite or virus in culture. It counts as cell-based. Conditions: Chaetomium globosum; C. globosum BCC020_2527; Muller Hinton broth with 2% glucose, 300–0.0732 µg/mL (control 32–0.0625), 30 °C 48 h, triplicate; least concentration showing any inhibition; read-out: MIC. As to the method:
as §1

The test system of a further series is Trichoderma harzianum. Put plainly: microbe, parasite or virus in culture. It counts as cell-based. Conditions: Trichoderma harzianum; T. harzianum BCC020_0606; Muller Hinton broth with 2% glucose, 300–0.0732 µg/mL (control 32–0.0625), 30 °C 48 h, triplicate; least concentration showing any inhibition; read-out: MIC. The method, then: as §1
In another series the test system is Monographella cucumerina. Put plainly: microbe, parasite or virus in culture. It counts as cell-based. To be noted: Plectosphaerella cucumerina; M. cucumerina BCC020_2872; Muller Hinton broth with 2% glucose, 300–0.0732 µg/mL (control 32–0.0625), 30 °C 48 h, triplicate; least concentration showing any inhibition; read-out: MIC. As to the method:
as §1

Where [2] appears, read: solvent system 4, n-Hex–EtOAc–EtOH–H2O 7:3:5:5, shaken, 20 min, K = peak area UP/LP.
The mark [3] stands for this setting: solvent system 5, n-Hex–EtOAc–EtOH–H2O 6:4:5:5, shaken, 20 min, K = peak area UP/LP.
The mark [4] stands for this setting: solvent system 7, n-Hex–EtOAc–EtOH–H2O 4:5:4:5, shaken, 20 min, K = peak area UP/LP.
Setting [5] is: solvent system 8, n-Hex–EtOAc–EtOH–H2O 3:5:3:5, shaken, 20 min, K = peak area UP/LP.
Setting [6] is: solvent system 9, n-Hex–EtOAc–EtOH–H2O 2:5:2:5, shaken, 20 min, K = peak area UP/LP.
[7] abbreviates: solvent system 11, n-Hex–EtOAc–EtOH–H2O–AcOH 1:5:1:5:1, shaken, 20 min, K = peak area UP/LP.

Turning to gentamycin [reference compound], in the series with Bacillus subtilis, the MIC was 4 µg/mL.
Regarding muscotoxin C [compound 1], the “lowest dose to manifest its activity” value with Sclerotinia sclerotiorum is recorded as above 250 µg. Further, the “Partition Coefficient (K) of Muscotoxins” value in series [1] (setting [2]) is 0.01; in [1] (setting [3]), 0.01; in series [1] (setting [4]), 0.02; in series [1] (setting [5]), 0.08; in series [1] (setting [6]) it was 0.40; in series [1] (setting [7]) it was 1.09.
For the compound `OC(Cn1cncn1)(Cn1cncn1)c1ccc(F)cc1F` [fluconazole, reference compound], the MIC came to 2 µg/mL (≈ 6.53 µM) in the series on Alternaria alternata; 32 µg/mL (≈ 104 µM) in the series on Aspergillus fumigatus; 8 µg/mL (≈ 26.1 µM) with Fusarium oxysporum; 8 µg/mL (≈ 26.1 µM) in the series with Candida friedrichii; 2 µg/mL (≈ 6.53 µM) in the series on Chaetomium globosum; 4 µg/mL (≈ 13.1 µM) in the series with Trichoderma harzianum. The MIC with Monographella cucumerina is 2 µg/mL (≈ 6.53 µM).
Regarding `C/C=C1\NC(=O)[C@H](CO)NC(=O)[C@@H]([C@@H](C)CC)NC(=O)[C@H](Cc2ccccc2)NC(=O)[C@@H]2CC(C)CN2C(=O)CNC(=O)[C@@H](CCC(N)=O)NC(=O)C(O)C(CC(O)CCCCC)NC(=O)[C@@H]2CCCN2C(=O)[C@@H]([C@@H](C)CC)NC(=O)[C@H](CO)NC1=O` (stereo partly shown) [compound 3, muscotoxin B] (cyclo([Dhb]S[d(aIle)]P[X1][dQ]G[X2]F[d(aIle)]S)), the “Partition Coefficient (K) of Muscotoxins” value in [1] (solvent system 1, n-Hex–EtOH–H2O 10:5:5, shake test tube, equilibrated 20 min, K = peak area upper phase/lower phase) was found to be 0.01; in [1] (solvent system 2, n-Hex–EtOAc–EtOH–H2O 9:1:5:5, shaken, 20 min, K = peak area UP/LP) it was 0.01; in series [1] (setting [2]), 0.02; in series [1] (setting [3]), 0.04; in series [1] (solvent system 6, n-Hex–EtOAc–EtOH–H2O 5:5:5:5, shaken, 20 min, K = peak area UP/LP), 0.01; in [1] (setting [4]), 0.05. The “Partition Coefficient (K) of Muscotoxins” value was found to be 0.27 in series [1] (setting [5]); 1.22 in [1] (setting [6]); 1.41 in series [1] (solvent system 10, n-Hex–EtOAc–EtOH–H2O 1:5:1:5, shaken, 20 min, K = peak area UP/LP); 2.45 in series [1] (setting [7]).

Values taken from PMC6222847, “Application of HPCCC Combined with Polymeric Resins and HPLC for the Separation of Cyclic Lipopeptides Muscotoxins A–C and Their Antimicrobial Activity” (Molecules : A Journal of Synthetic Chemistry and Natural …, 2018).
